Measured values from BindingDB's records for doi:10.1021/ja0296733 (Abbott Laboratories, 2003).

Key:
[1] = molecular target: T1, Tyrosine-protein phosphatase non-receptor type 1 [1-298] (Homo sapiens, UniProt P18031); test: PTP1B and TCPTP Inhibition Assay; details: pH 7.5; 22 °C
T1 construct: 1-298
T1 sequence (P18031 whole entry): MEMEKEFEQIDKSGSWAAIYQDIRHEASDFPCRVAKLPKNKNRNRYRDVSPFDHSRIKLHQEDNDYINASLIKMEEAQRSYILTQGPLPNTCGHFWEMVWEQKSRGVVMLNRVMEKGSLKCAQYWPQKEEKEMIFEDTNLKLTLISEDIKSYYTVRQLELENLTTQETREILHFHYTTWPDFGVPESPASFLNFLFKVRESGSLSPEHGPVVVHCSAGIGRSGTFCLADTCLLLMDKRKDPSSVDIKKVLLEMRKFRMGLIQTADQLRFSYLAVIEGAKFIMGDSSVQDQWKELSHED
Protocol: (§1) For each concentration of test compound or DMSO control, the initial rates were used to fit the rectangular hyperbola of Michaelis-Menten by nonlinear regression analysis. The ratio of the apparent Km/Vmax vs inhibitor concentration was plotted, and the Ki was calculated by linear regression to be the negative X-intercept.

[2] = molecular target: T2, Tyrosine-protein phosphatase non-receptor type 2 (Homo sapiens, UniProt P17706); test: PTP1B and TCPTP Inhibition Assay; details: pH 7.5; 22 °C
T2 sequence (P17706 whole entry): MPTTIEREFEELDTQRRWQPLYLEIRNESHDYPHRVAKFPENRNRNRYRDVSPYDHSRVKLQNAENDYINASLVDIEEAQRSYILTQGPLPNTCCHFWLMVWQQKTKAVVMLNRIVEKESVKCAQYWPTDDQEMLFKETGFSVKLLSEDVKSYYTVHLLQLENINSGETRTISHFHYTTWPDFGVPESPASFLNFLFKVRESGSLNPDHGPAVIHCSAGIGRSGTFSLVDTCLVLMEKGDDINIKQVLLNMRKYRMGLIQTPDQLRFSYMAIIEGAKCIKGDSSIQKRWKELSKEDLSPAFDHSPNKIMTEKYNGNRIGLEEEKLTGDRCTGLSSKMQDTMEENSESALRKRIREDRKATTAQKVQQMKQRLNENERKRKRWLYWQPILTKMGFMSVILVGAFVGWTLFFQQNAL
Protocol: as §1

Q: For `Cc1cccc(N(C(=O)C(=O)O)c2ccccc2C(=O)O)c1C`, which Ki [1] is on record?
A: Its Ki is 293 µM.

Q: And the Ki [2]?
A: The Ki was 164 µM.

Q: Which Ki [2] does the source give for `O=C(O)C(=O)N(c1ccccc1C(=O)O)c1cccc2ccccc12` [2-(Naphthalen-1-yloxalylamino)benzoic Acid] here?
A: Its Ki is 44 µM.

Q: For `CC(=O)N[C@@H](Cc1ccc(N(C(=O)C(=O)O)c2ccccc2C(=O)O)c2ccccc12)C(=O)NCCCCCOc1cc2ccccc2cc1C(=O)O` [3-({5-[(N-Acetyl-3-{4-[(carboxycarbonyl)(2-carboxyphenyl)amino]-1-naphthyl}-L-alanyl)amino]pentyl}oxy)-2-naphthoic Acid], which Ki [2] is on record?
A: The Ki was 0.049 µM.
